In paper PMC8170132, “Kinetics of Abacavir-Induced Remodelling of the Major Histocompatibility Complex Class I Peptide Repertoire” (Frontiers in Immunology, 2021):

Legend:
[1] = biological target: T1, HLA-B*57:01 (Homo sapiens, UniProt P01889, D201E/D98Y/E176V/E187L/E204Q/E69M/E70A/G107R/I90N/K202T/L105A/L119I/N104I/N87E/Q89R/Q94S/R106L/R155S/R180L/R86G/S101N/S121V/S35A/S48A/T118I/V36M/Y140S/Y91M); assay: LC-MRM-MS quantitation of HLA ligands and co-purified abacavir from abacavir treated C1R.B*57:01 cells; format: cell-based; conditions: for Abacavir dependence: LC-MRM-MS detection, classification of the peptide based on abacavir dependency; for Linear regression slope: linear regression of LC-MRM-MS peptide abundance over abacavir treatment time; for Category of abacavir impact on peptide abundance in the immunopeptidome: C1R.B*57:01, 35 µM abacavir 0-16 h or constant, linear regression of normalised abundance, three replicates
[2] = biological target: T1, HLA-B*57:01; design: method as in Illing et al., Nature 2012; conditions: ref Illing et al., Nature 2012, cited from earlier work; for HLA-B*57:01 previous observation by LC-MS/MS, Abacavir treated: abacavir treated cells; for HLA-B*57:01 previous observation by LC-MS/MS, Untreated: untreated cells

Sequence | Abacavir dependence [1] | Linear regression slope [1] | HLA-B*57:01 previous observation by LC-MS/MS, Abacavir treated [2] | HLA-B*57:01 previous observation by LC-MS/MS, Untreated [2] | Category of abacavir impact on peptide abundance in the immunopeptidome [1]
ASAGNLKPVW | Minimal | 0.0136 | + (+ (< 5% FDR)) | + (+ (< 5% FDR)) | 
ASAIIIQRW | Minimal | 0.0134 | + (+ (< 5% FDR)) | + (+ (< 5% FDR)) | 
ASSSQIIHI | Dependent | 0.0446 | + (+ (< 5% FDR)) |  | 
ATFKGIVRAI [non-labelled HLA-B*57:01 ligand] | Dependent | 0.0504 | + (+ (< 5% FDR)) |  | Dependent
FSHRIYVAY | Minimal | 0.0098 | + (+ (< 5% FDR)) | + (+ (< 5% FDR)) | 
FVKKLEHSW | Minimal | 0.0023 | + (+ (< 5% FDR)) | + (+ (< 5% FDR)) | 
GSFGKVFLV | Dependent | 0.0515 | + (+ (< 5% FDR)) |  | 
GTYQDVGSLNI | Dependent | 0.0429 | + (+ (< 5% FDR)) |  | 
HSMSDPGVSY | Minimal | 0.0044 | + (+ (< 5% FDR)) | + (+ (< 5% FDR)) | 
HSTDRVVLI | Dependent | 0.0350 | # (# (> 5% FDR)) |  | 
HTIQIRQDW [HLA-B*57:01 ligand] | Facilitated | 0.0256 | + (+ (< 5% FDR)) | + (+ (< 5% FDR)) | Facilitated
IFDSKVTEI |  | -0.0096 | + (+ (< 5% FDR)) | + (+ (< 5% FDR)) | 
ILDPHVVLL |  | 0.0062 | + (+ (< 5% FDR)) | + (+ (< 5% FDR)) | 
ISIHVGQAGVQI | Dependent | 0.0259 | + (+ (< 5% FDR)) |  | 
ITAGAHRLW | Minimal | 0.0136 | + (+ (< 5% FDR)) | + (+ (< 5% FDR)) | 
ITKTVVENI [HLA-B*57:01 ligand] | Minimal | -0.0036 | + (+ (< 5% FDR)) | + (+ (< 5% FDR)) | Minimal
ITNADSATRLL | Inhibited | -0.0254 |  | + (+ (< 5% FDR)) | 
IVFPGSTGHI | Dependent | 0.0377 | + (+ (< 5% FDR)) |  | 

Sequence | Abacavir dependence [1] | Linear regression slope [1] | HLA-B*57:01 previous observation by LC-MS/MS, Abacavir treated [2] | HLA-B*57:01 previous observation by LC-MS/MS, Untreated [2] | Category of abacavir impact on peptide abundance in the immunopeptidome [1]
IYDKFIAQL |  | -0.0106 | + (+ (< 5% FDR)) | + (+ (< 5% FDR)) | 
KAIDYIRFL | Inhibited | -0.0293 | + (+ (< 5% FDR)) | # (# (> 5% FDR)) | 
KIADFGWSV | Dependent | 0.0283 | + (+ (< 5% FDR)) |  | 
KSIARVLTV | Dependent | 0.0347 | # (# (> 5% FDR)) |  | 
KSIFVFTHV | Dependent | 0.0498 | + (+ (< 5% FDR)) |  | 
KSYELPDGQVI | Facilitated | 0.0297 | + (+ (< 5% FDR)) | # (# (> 5% FDR)) | 
KTAGYPNVNI | Dependent | 0.0509 | + (+ (< 5% FDR)) | # (# (> 5% FDR)) | 
KTFIGTVRV | Dependent | 0.0503 | + (+ (< 5% FDR)) |  | 
KTFKDVGNLL [non-labelled HLA-B*57:01 ligand] | Facilitated | 0.0314 | + (+ (< 5% FDR)) | + (+ (< 5% FDR)) | Facilitated
KTFTTQETI [HLA-B*57:01 ligand] |  |  | + (+ (< 5% FDR)) | + (+ (< 5% FDR)) | abacavir facilitated (abacavir facilitated (slope > 0.02, abundance > 0 at t = 0 in at least two of three replicates))
KTIETSPSL [HLA-B*57:01 ligand] |  |  | # (# (> 5% FDR)) |  | abacavir facilitated (abacavir facilitated (slope > 0.02, abundance > 0 at t = 0 in at least two of three replicates))
KTIKLWNTL [HLA-B*57:01 ligand derived from RACK1] | Facilitated | 0.0224 | + (+ (< 5% FDR)) | + (+ (< 5% FDR)) | abacavir facilitated (abacavir facilitated (slope > 0.02, abundance > 0 at t = 0 in at least two of three replicates))
KTLEGEFSV | Dependent | 0.0463 | + (+ (< 5% FDR)) |  | 
KVFKLQTSL [non-labelled HLA-B*57:01 ligand] | Dependent | 0.0380 | # (# (> 5% FDR)) |  | Dependent
KVVDVVRNL [HLA-B*57:01 ligand derived from MX1] | Inhibited | -0.0432 | # (# (> 5% FDR)) | + (+ (< 5% FDR)) | abacavir inhibited (abacavir inhibited (slope < −0.02))
LSKPNPPSL [HLA-B*57:01 ligand] | Minimal | -0.0172 | + (+ (< 5% FDR)) | + (+ (< 5% FDR)) | Minimal
LSQEQLRQW | Minimal | 0.0083 | + (+ (< 5% FDR)) | + (+ (< 5% FDR)) | 
